In patent US20250186321A1, “FORMULATION USING AMINO ACID AND CARBOXYLIC ACID, ORGANIC SALT, AND COMPOSITION COMPRISING SAME AND USE THEREOF” (MIYOSHI OIL & FAT CO., LTD., priority 2021, published 2025):
One block for each compound: values may come before it.

Legend:
Assay type in all cases: physicochemical
[1] = Appearance of formulation (state at 25° C.)
Method: Formulations 1 to 427 shown in Tables 1A to 1D were prepared by the above-described method using the components (A) and (B) at the compounding molar ratios shown in the tables, and their states at 25° C. were observed.

[2] = Water retention evaluation (moisture reduction rate); conditions: for Moisture eduction rate / Moisture content before test (A): 80 wt. % aqueous solution; for Moisture eduction rate: 24 hours at 35° C. and 25% RH, calculated from A and B; for Moisture content before test (A): Karl Fischer; for Presence or absence of hydrates: left until the moisture content remained unchanged, based on final moisture content; for n-hydrate: number of hydrated water based on final moisture content
Method: 80 wt. % aqueous solutions of the formulations (organic salts) of the working examples 428 to 459 and comparative examples 1 to 5 in Tables 2A and 2B were prepared, and the water contents were measured using a Karl Fischer moisture meter (CA-200 manufactured by Mitsubishi Chemical Analytech Co., Ltd.). It was confirmed that the water contents of them were 20.0 wt. % (moisture content before test: A). Each of the 1.0 g samples was added to a screw tube, and left uncovered to stand still for 24 hours in a constant temperature and humidity bath (KCL-2000W manufactured by Tokyo Rikakikai Co., Ltd.) which was set at 35° C. and 25% RH. Moisture contents after being left for 24 hours were measured again (moisture content after test: B) to evaluate their water retention property by using the following formula for calculating the moisture reduction rates. After that, it was left to stand still until the moisture content remained unchanged, and determinations of the hydrate and the number of hydrated water were made based on the final moisture contents. • Moisture content before test: A (%) • Moisture content after test: B (%)

[3] = Appearance of formulation (state at 25° C.); conditions: Tables 2A/2B; formulation at the compounding molar ratio listed
[4] = 25° C., components (A) and (B) at the compounding molar ratio shown
[5] = Tables 1C-1 to 1D, compounding molar ratio (Component (A):Component (B)) 1:1

SMILES: CCCCCC(=O)O.NCCCC[C@H](N)C(=O)O [Formulation 4]
state at 25° C. [1, 4]: Solid | Moisture eduction rate [2]: 60.2% | Moisture content before test (A) [2]: 20.0% | Presence or absence of hydrates [2]: Absent | state at 25° C. [3]: Solid

SMILES: NCCCC[C@H](N)C(=O)O.O=C(O)[C@H](O)[C@@H](O)[C@H](O)[C@H](O)CO [Formulation 9]
state at 25° C. [1, 4]: Liquid | state at 25° C. ([1]; 25° C., components (A) and (B) at the compounding molar ratio shown, listed as Working example 9): liquid | Moisture eduction rate [2]: 22.9% | Moisture content before test (A) [2]: 20.0% | Presence or absence of hydrates [2]: Present | n-hydrate [2]: Dihydrate | state at 25° C. [3]: Liquid

SMILES: NCCCC[C@H](N)C(=O)O.O=C(O)[C@H](O)[C@@H](O)[C@H](O)[C@H](O)CO.O=C(O)[C@H](O)[C@@H](O)[C@H](O)[C@H](O)CO [Formulation 30]
state at 25° C. [1, 4]: Liquid | state at 25° C. ([1]; 25° C., components (A) and (B) at the compounding molar ratio shown, listed as Working example 30): liquid | Moisture eduction rate [2]: 42.7% | Moisture content before test (A) [2]: 20.0% | Presence or absence of hydrates [2]: Present | state at 25° C. [3]: Liquid

SMILES: NCCCC[C@H](N)C(=O)O.NCCCC[C@H](N)C(=O)O.NCCCC[C@H](N)C(=O)O.O=C(O)CC(O)(CC(=O)O)C(=O)O.O=C(O)CC(O)(CC(=O)O)C(=O)O [Formulation 37]
state at 25° C. [1, 4]: Liquid | state at 25° C. ([1]; 25° C., components (A) and (B) at the compounding molar ratio shown, listed as Working example 37): liquid | Moisture eduction rate [2]: 22.4% | Moisture content before test (A) [2]: 20.0% | Presence or absence of hydrates [2]: Present | n-hydrate [2]: Dihydrate | state at 25° C. [3]: Liquid

SMILES: N=C(N)NCCC[C@H](N)C(=O)O.O=C(O)[C@H](O)[C@@H](O)[C@H](O)[C@H](O)CO [Formulation 51]
state at 25° C. [1, 4]: Liquid | Moisture eduction rate [2]: 23.7% | Moisture content before test (A) [2]: 20.0% | Presence or absence of hydrates [2]: Present | n-hydrate [2]: Mono- | state at 25° C. [3]: Liquid

SMILES: CC(O)C(=O)O.N=C(N)NCCC[C@H](N)C(=O)O [Formulation 52]
state at 25° C. [1, 4]: Liquid | Moisture eduction rate [2]: 24.3% | Moisture content before test (A) [2]: 20.0% | Presence or absence of hydrates [2]: Present | n-hydrate [2]: Mono- | state at 25° C. [3]: Liquid

SMILES: N[C@@H](Cc1c[nH]c2ccccc12)C(=O)O.O=C(O)C(O)C(O)C(=O)O [Formulation 390]
state at 25° C. [1, 5]: Solid

SMILES: N[C@@H](Cc1c[nH]c2ccccc12)C(=O)O.O=C(O)c1ccccc1 [Formulation 391]
state at 25° C. [1, 5]: Solid

SMILES: N[C@@H](Cc1c[nH]c2ccccc12)C(=O)O.O=C1O[C@H]([C@@H](O)CO)C(O)=C1O [Formulation 392]
state at 25° C. [1, 5]: Solid

SMILES: N[C@@H](Cc1c[nH]c2ccccc12)C(=O)O.O=C1O[C@H]([C@H](O)CO)C(O)=C1O [Formulation 393]
state at 25° C. [1, 5]: Solid

state at 25° C. [1, 5]: Solid
SMILES: N[C@@H](CC(=O)O)C(=O)O.O=CO [Formulation 394]

state at 25° C. [1, 5]: Solid
SMILES: CC(=O)O.N[C@@H](CC(=O)O)C(=O)O [Formulation 395]

state at 25° C. [1, 5]: Solid
SMILES: CCC(=O)O.N[C@@H](CC(=O)O)C(=O)O [Formulation 396]

state at 25° C. [1, 5]: Solid
SMILES: CCCCCC(=O)O.N[C@@H](CC(=O)O)C(=O)O [Formulation 397]

state at 25° C. [1, 5]: Solid
SMILES: CCCC(=O)O.N[C@@H](CC(=O)O)C(=O)O [Formulation 398]

state at 25° C. [1, 5]: Solid
SMILES: N[C@@H](CC(=O)O)C(=O)O.O=C(O)[C@H](O)[C@@H](O)[C@H](O)[C@H](O)CO [Formulation 399]

state at 25° C. [1, 5]: Solid
SMILES: CC(O)C(=O)O.N[C@@H](CC(=O)O)C(=O)O [Formulation 400]

state at 25° C. [1, 5]: Solid
SMILES: N[C@@H](CC(=O)O)C(=O)O.O=C(O)CCCCC(=O)O [Formulation 401]

state at 25° C. [1, 5]: Solid
SMILES: N[C@@H](CC(=O)O)C(=O)O.O=C(O)CCC(=O)O [Formulation 402]

SMILES: N[C@@H](CC(=O)O)C(=O)O.N[C@@H](CCC(=O)O)C(=O)O [Formulation 403]
state at 25° C. [1, 5]: Solid

state at 25° C. [1, 5]: Solid
SMILES: N[C@@H](CC(=O)O)C(=O)O.O=C(O)/C=C/C(=O)O [Formulation 404]

state at 25° C. [1, 5]: Solid
SMILES: NC(CC(=O)O)C(=O)O.O=C(O)CC(O)C(=O)O (stereo not drawn) [Formulation 405]

state at 25° C. [1, 5]: Solid
SMILES: N[C@@H](CC(=O)O)C(=O)O.O=C(O)CC(O)(CC(=O)O)C(=O)O [Formulation 406]

state at 25° C. [1, 5]: Solid
SMILES: N[C@@H](CC(=O)O)C(=O)O.O=C(O)C(O)C(O)C(=O)O (stereo not drawn) [Formulation 407]

SMILES: N[C@@H](CC(=O)O)C(=O)O.O=C(O)c1ccccc1 [Formulation 408]
state at 25° C. [1, 5]: Solid

state at 25° C. [1, 5]: Solid
SMILES: N[C@@H](CC(=O)O)C(=O)O.O=C1O[C@H]([C@@H](O)CO)C(O)=C1O [Formulation 409]

state at 25° C. [1, 5]: Solid
SMILES: N[C@@H](CC(=O)O)C(=O)O.O=C1O[C@H]([C@H](O)CO)C(O)=C1O [Formulation 410]

SMILES: N[C@@H](CCC(=O)O)C(=O)O.O=CO [Formulation 411]
state at 25° C. [1, 5]: Solid

SMILES: CC(=O)O.N[C@@H](CCC(=O)O)C(=O)O [Formulation 412]
state at 25° C. [1, 5]: Solid

SMILES: CCC(=O)O.N[C@@H](CCC(=O)O)C(=O)O [Formulation 413]
state at 25° C. [1, 5]: Solid

SMILES: CCCCCC(=O)O.N[C@@H](CCC(=O)O)C(=O)O [Formulation 414]
state at 25° C. [1, 5]: Solid

SMILES: CCCC(=O)O.N[C@@H](CCC(=O)O)C(=O)O [Formulation 415]
state at 25° C. [1, 5]: Solid

SMILES: N[C@@H](CCC(=O)O)C(=O)O.O=C(O)C(O)C(O)C(O)C(O)CO (stereo not drawn) [Formulation 416]
state at 25° C. [1, 5]: Solid

SMILES: CC(O)C(=O)O.N[C@@H](CCC(=O)O)C(=O)O [Formulation 417]
state at 25° C. [1, 5]: Solid

SMILES: N[C@@H](CCC(=O)O)C(=O)O.O=C(O)CCCCC(=O)O [Formulation 418]
state at 25° C. [1, 5]: Solid

SMILES: N[C@@H](CCC(=O)O)C(=O)O.O=C(O)CCC(=O)O [Formulation 419]
state at 25° C. [1, 5]: Solid

SMILES: N[C@@H](CCC(=O)O)C(=O)O.N[C@@H](CCC(=O)O)C(=O)O [Formulation 420]
state at 25° C. [1, 5]: Solid

SMILES: N[C@@H](CCC(=O)O)C(=O)O.O=C(O)/C=C/C(=O)O [Formulation 421]
state at 25° C. [1, 5]: Solid

state at 25° C. [1, 5]: Solid
SMILES: NC(CCC(=O)O)C(=O)O.O=C(O)CC(O)C(=O)O (stereo not drawn) [Formulation 422]

SMILES: N[C@@H](CCC(=O)O)C(=O)O.O=C(O)CC(O)(CC(=O)O)C(=O)O [Formulation 423]
state at 25° C. [1, 5]: Solid

SMILES: N[C@@H](CCC(=O)O)C(=O)O.O=C(O)C(O)C(O)C(=O)O [Formulation 424]
state at 25° C. [1, 5]: Solid

SMILES: N[C@@H](CCC(=O)O)C(=O)O.O=C(O)c1ccccc1 [Formulation 425]
state at 25° C. [1, 5]: Solid

SMILES: N[C@@H](CCC(=O)O)C(=O)O.O=C1O[C@H]([C@@H](O)CO)C(O)=C1O [Formulation 426]
state at 25° C. [1, 5]: Solid

state at 25° C. [1, 5]: Solid
SMILES: NC(CCC(=O)O)C(=O)O.O=C1OC(C(O)CO)C(O)=C1O (stereo not drawn) [Formulation 427]

SMILES: Cl.NCCCC[C@H](N)C(=O)O [Formulation 429]
Moisture eduction rate [2]: 68.2% | Moisture content before test (A) [2]: 20.0% | Presence or absence of hydrates [2]: Absent | state at 25° C. [3]: Solid

state at 25° C. ([1]; 25° C.): Solid
SMILES: Cl.O=C(O)[C@@H]1CCCN1 [Formulation 437]

state at 25° C. ([1]; 25° C.): Liquid
SMILES: O [Formulation 438]
